Experimental data reported in US20050148763A1, “Peg-binding pth or peg-binding pth derivative” (Chugai Seiyaku Kabushiki Kaisha, priority 2002, published 2005).

What was measured:
Type in all cases: in vivo
[1] = Hypercalcemic effect of PEG-[Cys^35]-PTH(1-35) in normal female DDY mice; details: for Blood iCa level Hour 1: 1 hour after administration; for Blood iCa level Hour 3: 3 hours; for Blood iCa level Hour 6: 6 hours; for Blood iCa level Hour 9: 9 hours; for Blood iCa level Hour 24: 24 hours; for Blood iCa level Hour 0: before administration
Experimental: 2 k, 5 k and 20 k PEG-[Cys^35]-PTH(1-35) were also adjusted similarly to 30, 10 and 2 nmol/mL (calculated as PTH) and allowed to stand on ice immediately before administration.
Using female DDY mice at 6 weeks of age (Japan SLC, Inc.), the corrected level of ionized calcium at pH 7.4 was determined for each sample in the same manner as shown in (1) above. The mice received subcutaneous administration of each drug at a dose of 5 mL/kg. The buffer was administered to a group of 5 mice. […] 150 nmol/kg 2 k, 5 k and 20 k PEG-[Cys^35]-PTH(1-35) were administered to groups of 4 mice each. 50 and 10 nmol/kg 2 k, 5 k and 20 k PEG-[Cys^35]-PTH(1-35) were administered to groups of 5 mice each. At 1, 3, 6, 9 and 24 hours after administration, blood was collected by orbital puncture to monitor the time course of corrected blood ionized calcium levels.

[2] = Pharmacokinetics in rats by intravenous route; details: rat, in vivo, 80 μg/mL at 1 mL/kg
Experimental: (§1) Each sample was adjusted to 80 μg/mL by dilution with 25 mmol/L citrate-phosphate buffer (pH 5.0) containing 100 mmol/L NaCl and 0.05 vol % Tween 20 to give a solution for administration. Male SD rats at 6 weeks of age (CLEA Japan, Inc.) were provided for this experiment. Intravenous injection was performed on rats having polyethylene tubes (SP-31, Natsume Seisakusho Co., Ltd.) inserted into the femoral artery and vein. The solutions thus prepared were each administered at a dose of 1 mL/kg through a polyethylene tube inserted into the femoral vein, and blood was collected through a polyethylene tube inserted into the femoral artery before administration and at 5, 15, 30 and 45 minutes as well as 1, 2, 4, 6, 8 and 24 hours after administration. Subcutaneous administration was performed on rats having polyethylene tubes inserted into the femoral artery. The solutions prepared above were each subcutaneously administered at a dose of 1 mL/kg to the dorsal neck region of the rats, and blood was collected in the same manner as used for intravenous injection. These blood samples were centrifuged to collect plasma and stored at −40° C. until assayed for PTH(1-34) or PEG-PTH(1-34) levels.
(§2) The level of PTH(1-34) or PEG-PTH(1-34) was determined by RIA analysis using a Rat PTH IRMA Kit (Immutopics). A Cobra Quantum Model 5005 gamma counter (Packard) was used to measure radioactivity for each sample. The plasma level of PTH(1-34) or PEG-PTH(1-34) was calculated from a calibration curve prepared using PTH(1-34) or PEG-PTH(1-34). The Winnonlin program Ver. 2.1 (Scientific Consulting Inc.) was used to analyze the time course of changes in the calculated plasma PTH(1-34) or PEG-PTH(1-34) levels (FIG. 3: by intravenous route; FIG. 4: by subcutaneous route) to calculate the following as pharmacokinetic parameters: time required to reach the maximum plasma level (Tmax); maximum plasma level (Cmax); area under the curve of plasma levels (AUC); plasma half-life (t1/2); total body clearance (Cltotal); mean residence time in the body (MRT); and bioavailability (BA). […]

[3] = Hypercalcemic effect of PEG-PTH(1-34) in normal male BDF1 mice; details: sc, hPTH(1-34) 50-500 nmol/kg, PEG-PTHs 150 nmol/kg
Experimental: (§3) 2 k and 5 k PEG-PTH(1-34) were also adjusted similarly to 30 nmol/mL (calculated as PTH) and allowed to stand on ice immediately before administration.
(§4) Male BDF1 mice at 5 weeks of age (Charles River Japan, Inc.) were measured for their body weight. Immediately before drug administration, blood was collected by orbital puncture into heparinized capillary tubes and measured for baseline levels of blood ionized calcium and pH using a Ca^2+/pH analyzer (Model 348/Bayer Medical Ltd.) to give the corrected level of ionized calcium at pH 7.4 for each sample. The mice received subcutaneous administration of each drug at a dose of 5 mL/kg. […] At 1, 3 and 6 hours after administration, blood was collected by orbital puncture to monitor the time course of corrected blood ionized calcium levels.

[4] = Hypercalcemic effect of PEG-PTH(1-34) in normal female DDY mice; details: sc, hPTH(1-34) 50-500 nmol/kg, 5 k PEG-PTH(1-34) 150 nmol/kg
Experimental: as §3, §4
The same experiment was repeated on female DDY mice at 5 weeks of age (Charles River Japan, Inc.). The mice received subcutaneous administration of each drug at a dose of 5 mL/kg. […] At 1, 3 and 6 hours after administration, blood was collected by orbital puncture to monitor the time course of corrected blood ionized calcium levels.

[5] = Pharmacokinetics and bioavailability in rats by subcutaneous route
Experimental: as §1, §2

Compound: 2 k PEG-[Cys^35]-hPTH(1-35): [Cys^35]-PTH(1-35) conjugated with mPEG 2 k-MAL (2 kDa methoxy-PEG-maleimide) at the C-terminal cysteine (SVSEIQLMHNLGKHLNSMERVEWLRKKLQDVHNFC; Parathyroid hormone 2 kDa mPEG-maleimide at Cys35; UniProt P01270 32-66, looked up, variant V35C)
- Blood iCa level Hour 1 ([1]; 10 nmol/kg sc): 1.44 ± 0.03 mM
- Blood iCa level Hour 3 ([1]; 10 nmol/kg sc): 1.48 ± 0.02 mM
- Blood iCa level Hour 6 ([1]; 10 nmol/kg sc): 1.39 ± 0.02 mM
- Blood iCa level Hour 9 ([1]; 10 nmol/kg sc): 1.32 ± 0.04 mM
- Blood iCa level Hour 24 ([1]; 10 nmol/kg sc): 1.37 ± 0.02 mM
- Blood iCa level Hour 0 ([1]; 10 nmol/kg sc): 1.30 ± 0.04 mM
- Blood iCa level Hour 1 ([1]; 50 nmol/kg sc): 1.41 ± 0.02 mM
- Blood iCa level Hour 3 ([1]; 50 nmol/kg sc): 1.47 ± 0.03 mM
- Blood iCa level Hour 6 ([1]; 50 nmol/kg sc): 1.47 ± 0.02 mM
- Blood iCa level Hour 9 ([1]; 50 nmol/kg sc): 1.29 ± 0.05 mM
- Blood iCa level Hour 24 ([1]; 50 nmol/kg sc): 1.34 ± 0.03 mM
- Blood iCa level Hour 0 ([1]; 50 nmol/kg sc): 1.27 ± 0.03 mM
- Blood iCa level Hour 1 ([1]; 150 nmol/kg sc): 1.44 ± 0.02 mM
- Blood iCa level Hour 3 ([1]; 150 nmol/kg sc): 1.47 ± 0.05 mM
- Blood iCa level Hour 6 ([1]; 150 nmol/kg sc): 1.48 ± 0.05 mM
- Blood iCa level Hour 9 ([1]; 150 nmol/kg sc): 1.26 ± 0.02 mM
- Blood iCa level Hour 24 ([1]; 150 nmol/kg sc): 1.34 ± 0.03 mM
- Blood iCa level Hour 0 ([1]; 150 nmol/kg sc): 1.32 ± 0.02 mM
- increased blood ionized calcium level maintained until ([1]; female DDY mice, sc): 6 h
- time of maximum increase in blood ionized calcium levels after administration ([1]; female DDY mice, sc): 3 h

Compound: CC[C@H](C)[C@H](NC(=O)[C@H](CCC(=O)O)NC(=O)[C@H](CO)NC(=O)[C@@H](NC(=O)[C@@H](N)CO)C(C)C)C(=O)N[C@@H](CCC(N)=O)C(=O)N[C@@H](CC(C)C)C(=O)N[C@@H](CCSC)C(=O)N[C@@H](Cc1cnc[nH]1)C(=O)N[C@@H](CC(N)=O)C(=O)N[C@@H](CC(C)C)C(=O)NCC(=O)N[C@@H](CCCCN)C(=O)N[C@@H](Cc1cnc[nH]1)C(=O)N[C@@H](CC(C)C)C(=O)N[C@@H](CC(N)=O)C(=O)N[C@@H](CO)C(=O)N[C@@H](CCSC)C(=O)N[C@@H](CCC(=O)O)C(=O)N[C@@H](CCCN=C(N)N)C(=O)N[C@H](C(=O)N[C@@H](CCC(=O)O)C(=O)N[C@@H](Cc1c[nH]c2ccccc12)C(=O)N[C@@H](CC(C)C)C(=O)N[C@@H](CCCN=C(N)N)C(=O)N[C@@H](CCCCN)C(=O)N[C@@H](CCCCN)C(=O)N[C@@H](CC(C)C)C(=O)N[C@@H](CCC(N)=O)C(=O)N[C@@H](CC(=O)O)C(=O)N[C@H](C(=O)N[C@@H](Cc1cnc[nH]1)C(=O)N[C@@H](CC(N)=O)C(=O)N[C@@H](Cc1ccccc1)C(=O)O)C(C)C)C(C)C [hPTH(1-34), reference compound]
- AUC ([2]; read-out: AUC): 21.7 ng·h/mL
- clearance ([2]; read-out: Cltotal (converted)): 61.7 mL/min/kg
- MRT ([2]; read-out: MRT): 12.7 min
- half-life ([2]; read-out: t½ (converted)): 13.9 min
- time of maximum increase in blood ionized calcium levels after administration [3]: one
- time of maximum increase in blood ionized calcium levels after administration [4]: 3 h
- bioavailability ([5]; male, SD, rat, plasma, sc, 80 μg/kg, subcutaneous route, read-out: BA): 13.6%
- Cmax ([5]; rat, in vivo, sc, subcutaneous, 80 μg/mL at 1 mL/kg): 5.55 ng/mL
- AUC ([5]; rat, in vivo, sc, subcutaneous, 80 μg/mL at 1 mL/kg, read-out: AUC): 2.94 ng·h/mL
- MRT ([5]; rat, in vivo, sc, subcutaneous, 80 μg/mL at 1 mL/kg, read-out: MRT): 32.8 min
- Tmax ([5]; rat, in vivo, sc, subcutaneous, 80 μg/mL at 1 mL/kg, read-out: Tmax): 11.6 min
- half-life ([5]; rat, in vivo, sc, subcutaneous, 80 μg/mL at 1 mL/kg, read-out: t ½ (converted)): 20.9 min
- BA ([5]; subcutaneous route): about 13.6%
- Blood iCa level Hour 1 ([1]; 50 nmol/kg sc): 1.45 ± 0.03 mM
- Blood iCa level Hour 3 ([1]; 50 nmol/kg sc): 1.43 ± 0.03 mM
- Blood iCa level Hour 6 ([1]; 50 nmol/kg sc): 1.33 ± 0.02 mM
- Blood iCa level Hour 9 ([1]; 50 nmol/kg sc): 1.27 ± 0.05 mM
- Blood iCa level Hour 24 ([1]; 50 nmol/kg sc): 1.36 ± 0.02 mM
- Blood iCa level Hour 0 ([1]; 50 nmol/kg sc): 1.31 ± 0.03 mM
- Blood iCa level Hour 1 ([1]; 150 nmol/kg sc): 1.46 ± 0.02 mM
- Blood iCa level Hour 3 ([1]; 150 nmol/kg sc): 1.48 ± 0.03 mM
- Blood iCa level Hour 6 ([1]; 150 nmol/kg sc): 1.36 ± 0.02 mM
- Blood iCa level Hour 9 ([1]; 150 nmol/kg sc): 1.32 ± 0.04 mM
- Blood iCa level Hour 24 ([1]; 150 nmol/kg sc): 1.36 ± 0.03 mM
- Blood iCa level Hour 0 ([1]; 150 nmol/kg sc): 1.33 ± 0.03 mM
- Blood iCa level Hour 1 ([1]; 500 nmol/kg sc): 1.44 ± 0.04 mM
- Blood iCa level Hour 3 ([1]; 500 nmol/kg sc): 1.46 ± 0.04 mM
- Blood iCa level Hour 6 ([1]; 500 nmol/kg sc): 1.43 ± 0.01 mM
- Blood iCa level Hour 9 ([1]; 500 nmol/kg sc): 1.27 ± 0.04 mM
- Blood iCa level Hour 24 ([1]; 500 nmol/kg sc): 1.39 ± 0.02 mM
- Blood iCa level Hour 0 ([1]; 500 nmol/kg sc): 1.34 ± 0.03 mM
- time of maximum increase in blood ionized calcium levels after administration ([1]; female DDY mice, sc): 3 h
